Reference: patent US12391679B2, “Benzamide-substituted bicyclic imidazo- and pyrazolo-fused -pyridine, -pyrimide, and -pyridazine compounds for treatment of inflammatory diseases” (ONCO3R Therapeutics BV, priority 2019, dated 2025)

System: LPS triggered IL-10 secretion in monocytes
Experiment: Monocytes assay: LPS-triggered IL-10 (ELISA)
Assay type: cell-based, human
Conditions: Homo sapiens, Monocyte, LPS-triggered IL-10 induction, median maximal fold change vs LPS only, read-out: IL-10 FCmax median
Method in brief: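 CD14+ monocytes bead-isolated from human PBMCs, pretreated with compound 1 h at 37 °C (0.2% DMSO), then stimulated with LPS 200 ng/mL for 4 h. Supernatant IL-10 measured by chemiluminescent sandwich ELISA; fold change versus LPS only per concentration, reported as maximal fold change (FCmax).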

COc1cc(-c2cnn3cc(C4(C(N)=O)CCC4)ccc23)cc(OC(F)F)c1C(=O)N[C@@H]1C[C@@H]1F [Cpd 254, 4-[6-(1-carbamoylcyclobutyl)pyrazolo[1,5-a]pyridin-3-yl]-2-(difluoromethoxy)-N-[(1R,2S)-2-fluorocyclopropyl]-6-methoxy-benzamide] and COc1cc(-c2cnn3cc(C4(N)CCC4)ccc23)cc(OC(F)F)c1C(=O)N[C@@H]1C[C@@H]1F [Cpd 261, 4-[6-(1-aminocyclobutyl)pyrazolo[1,5-a]pyridin-3-yl]-2-(difluoromethoxy)-N-[(1R,2S)-2-fluorocyclopropyl]-6-methoxy-benzamide] cannot be ordered by maximal fold induction: < 1.5 for the first, < 1.5 for the second.

First: COc1cc(-c2cnn3cc(C(C)(C)O)ccc23)cc(OC(F)F)c1C(=O)N[C@@H]1C[C@@H]1F [Cpd 227, 2-(difluoromethoxy)-N-[(1R,2S)-2-fluorocyclopropyl]-4-[6-(1-hydroxy-1-methyl-ethyl)pyrazolo[1,5-a]pyridin-3-yl]-6-methoxy-benzamide]
Second: COc1cc(-c2cnn3cc(C(C)(C)C#N)ccc23)cc(OC(F)F)c1C(=O)N[C@@H]1C[C@H]1F (single isomer, unassigned) [Cpd 257, 4-[6-(1-cyano-1-methyl-ethyl)pyrazolo[1,5-a]pyridin-3-yl]-2-(difluoromethoxy)-N-(2-fluorocyclopropyl)-6-methoxy-benzamide]
The maximal fold induction of the first is lower: < 1.5 for the first, 1.5 to 4.5 for the second.

COc1cc(-c2cnc3cc(C4(C#N)CCOCC4)ccn23)cc(OC)c1C(=O)NCC(F)(F)F [Cpd 107, 4-[7-(4-cyanotetrahydropyran-4-yl)imidazo[1,2-a]pyridin-3-yl]-2,6-dimethoxy-N-(2,2,2-trifluoroethyl)benzamide] and COc1cc(-c2cnc3cc(C4(C#N)COC4)ccn23)cc(OC(F)F)c1C(=O)NC1CC1 [Cpd 117, 4-[7-(3-cyanooxetan-3-yl)imidazo[1,2-a]pyridin-3-yl]-N-cyclopropyl-2-(difluoromethoxy)-6-methoxy-benzamide] fall in the same range of maximal fold induction: 1.5 to 4.5 for the first, 1.5 to 4.5 for the second.

COc1cc(-c2cnc3cc(C4(O)CCC4)ccn23)cc(OC(F)F)c1C(=O)NC1CC1 [Cpd 173, N-cyclopropyl-2-(difluoromethoxy)-4-[7-(1-hydroxycyclobutyl)imidazo[1,2-a]pyridin-3-yl]-6-methoxy-benzamide] and COc1cc(-c2cnc3cc(C4(O)CCC4)ccn23)cc(OC(F)F)c1C(=O)N[C@@H]1C[C@@H]1F [Cpd 205, 2-(difluoromethoxy)-N-[(1R,2S)-2-fluorocyclopropyl]-4-[7-(1-hydroxycyclobutyl)imidazo[1,2-a]pyridin-3-yl]-6-methoxy-benzamide] fall in the same range of maximal fold induction: 1.5 to 4.5 for the first, 1.5 to 4.5 for the second.

Compared with COc1cc(-c2cnc3cc(C(C)(C)CO)ccn23)cc(OC(F)F)c1C(=O)NC1CC1 [Cpd 150, N-cyclopropyl-2-(difluoromethoxy)-4-[7-(2-hydroxy-1,1-dimethyl-ethyl)imidazo[1,2-a]pyridin-3-yl]-6-methoxy-benzamide], COc1cc(-c2cnc3cc(C(C)(C)O)ccn23)cc(OC(F)F)c1C(=O)NC1CC1 [Cpd 35, N-cyclopropyl-2-(difluoromethoxy)-4-[7-(1-hydroxy-1-methyl-ethyl)imidazo[1,2-a]pyridin-3-yl]-6-methoxy-benzamide] is higher in maximal fold induction: < 1.5 for the first, 1.5 to 4.5 for the second.

COc1cc(-c2cnc3cc(C4(C#N)COC4)ccn23)cc(OC(F)F)c1C(=O)N[C@@H]1C[C@@H]1F [Cpd 130, 4-[7-(3-cyanooxetan-3-yl)imidazo[1,2-a]pyridin-3-yl]-2-(difluoromethoxy)-N-[(1R,2S)-2-fluorocyclopropyl]-6-methoxy-benzamide] and COc1cc(-c2cnc3cc(C4COC4)ccn23)cc(OC(F)F)c1C(=O)NC1CC1 [Cpd 174, N-cyclopropyl-2-(difluoromethoxy)-6-methoxy-4-[7-(oxetan-3-yl)imidazo[1,2-a]pyridin-3-yl]benzamide] fall in the same range of maximal fold induction: 1.5 to 4.5 for the first, 1.5 to 4.5 for the second.

First: COc1cc(-c2cnn3cc(C(C)(C)CN4CCOCC4)ccc23)cc(OC(F)F)c1C(=O)N[C@@H]1C[C@@H]1F [Cpd 269, 2-(difluoromethoxy)-4-[6-(1,1-dimethyl-2-morpholino-ethyl)pyrazolo[1,5-a]pyridin-3-yl]-N-[(1R,2S)-2-fluorocyclopropyl]-6-methoxy-benzamide]
Second: COc1cc(-c2cnn3cc(C(C)(C)CO)ccc23)cc(OC(F)F)c1C(=O)NC1CC1 [Cpd 236, N-cyclopropyl-2-(difluoromethoxy)-4-[6-(2-hydroxy-1,1-dimethyl-ethyl)pyrazolo[1,5-a]pyridin-3-yl]-6-methoxy-benzamide]
The maximal fold induction of the first is higher: 1.5 to 4.5 for the first, < 1.5 for the second.

Compared with COc1cc(-c2cnc3cc([C@@](C)(C#N)CO)ccn23)cc(OC(F)F)c1C(=O)NC1CC1 (single isomer, unassigned) [Cpd 189, 4-[7-(1-cyano-2-hydroxy-1-methyl-ethyl)imidazo[1,2-a]pyridin-3-yl]-N-cyclopropyl-2-(difluoromethoxy)-6-methoxy-benzamide], COc1cc(-c2cnc3cc(C(C)(C#N)CO)ccn23)cc(OC(F)F)c1C(=O)NC1CC1 (stereo not shown) [Cpd 176, 4-[7-(1-cyano-2-hydroxy-1-methyl-ethyl)imidazo[1,2-a]pyridin-3-yl]-N-cyclopropyl-2-(difluoromethoxy)-6-methoxy-benzamide] is higher in maximal fold induction: < 1.5 for the first, 1.5 to 4.5 for the second.

CCC(C)(O)c1ccn2c(-c3cc(OC)c(C(=O)NC4CC4)c(OC(F)F)c3)cnc2c1 (stereo not shown) [Cpd 137, N-cyclopropyl-2-(difluoromethoxy)-4-[7-(1-hydroxy-1-methyl-propyl)imidazo[1,2-a]pyridin-3-yl]-6-methoxy-benzamide] and CCC(C)(C#N)c1ccn2c(-c3cc(OC)c(C(=O)NC4CC4)c(OC(F)F)c3)cnc2c1 (stereo not shown) [Cpd 27, 4-[7-(1-cyano-1-methyl-propyl)imidazo[1,2-a]pyridin-3-yl]-N-cyclopropyl-2-(difluoromethoxy)-6-methoxy-benzamide] cannot be ordered by maximal fold induction: < 1.5 for the first, < 1.5 for the second.

COc1cc(-c2cnc3cc(C4CCCN4C)ccn23)cc(OC(F)F)c1C(=O)NC1CC1 (stereo not shown) [Cpd 171, N-cyclopropyl-2-(difluoromethoxy)-6-methoxy-4-[7-(1-methylpyrrolidin-2-yl)imidazo[1,2-a]pyridin-3-yl]benzamide] and COc1cc(-c2cnc3cc(C(O)CC#N)ccn23)cc(OC(F)F)c1C(=O)NC1CC1 (stereo not shown) [Cpd 175, 4-[7-(2-cyano-1-hydroxy-ethyl)imidazo[1,2-a]pyridin-3-yl]-N-cyclopropyl-2-(difluoromethoxy)-6-methoxy-benzamide] fall in the same range of maximal fold induction: 1.5 to 4.5 for the first, 1.5 to 4.5 for the second.

COc1cc(-c2cnn3cc(C4(O)CCC4)ccc23)cc(OC(F)F)c1C(=O)N[C@@H]1C[C@@H]1F [Cpd 266, 2-(difluoromethoxy)-N-[(1R,2S)-2-fluorocyclopropyl]-4-[6-(1-hydroxycyclobutyl)pyrazolo[1,5-a]pyridin-3-yl]-6-methoxy-benzamide] and COc1cc(-c2cnn3cc(C4COC4)ccc23)cc(OC(F)F)c1C(=O)NC1CC1 [Cpd 216, N-cyclopropyl-2-(difluoromethoxy)-6-methoxy-4-[6-(oxetan-3-yl)pyrazolo[1,5-a]pyridin-3-yl]benzamide] cannot be ordered by maximal fold induction: < 1.5 for the first, < 1.5 for the second.

System: LPS triggered IL-10 secretion in monocyte-derived macrophages
Experiment: MdM assay: LPS-triggered IL-10 (ELISA)
Assay type: cell-based
Conditions: Macrophage; human MdM; LPS 200 ng/mL; supernatant after 2 h; maximal fold change vs LPS only, median of two or more assays; read-out: IL-10 FCmax median
Method: SIK inhibition inhibits TNFα and increases IL-10 release in LPS triggered monocyte-derived macrophages (MdM) and dendritic cells (MdDCs) (Clark et al. 2012; Sundberg et al. 2014; Ozanne et al. 2015). This assay evaluates illustrative compounds of the invention for their inhibition of LPS-induced TNFα and LPS triggered IL-10 secretion in monocyte-derived macrophages.
PBMCs are isolated from human blood samples (buffycoats). The buffy coat is aseptically transferred into a 50 mL Falcon tube, and diluted 1/2 in PBS. Falcon tubes are filled with 20 mL Lymphoprep™, on top of which 25 mL of the buffy coat is carefully added, tubes are centrifuged for 35 min at 400 g in temperature controlled centrifuge, without brake, at 25° C. PBMCs are aspirated from the white interface layer between sample and Lymphoprep™. PBMCs are washed five times in PBS. Cells are resuspended in RPMI 1640 complete medium supplemented with 10% FBS, 1% P/S, and cell density is determined using a hematologic analyzer (Sysmex XS-500i).
PBMCs are centrifuged at 300×g for 10 min and resuspended at a density of 1.0*10^7 cells/80 μL Miltenyi buffer (PBS, pH 7.4, 1% FBS, 2 mM EDTA).
Starting from this point of the protocol all steps are performed on ice. 20 μL of CD14+ micro-beads are added per 1.0*10^7 cells, the tube is mixed and incubated for 15 min in the fridge at 4° C. Cell suspension volume is adjusted to total volume of 100 mL using Miltenyi buffer, mixed gently and subsequently centrifuged for 10 min at 300×g. Supernatant is discarded and cell pellet is resuspended in 12 mL of Miltenyi buffer.
Four LS columns are placed in the MACS Separator (magnet) from Miltenyi Biotec, and are prewet by rinsing with 3 mL of MACS buffer per column. Three mL of cell suspension is added onto the column (max 1*10^8 of labelled cells/column), and columns are subsequently washed 3 times with 3 mL of Miltenyi buffer.
The columns are removed from the magnets, and 5 mL of Miltenyi buffer are added to the column to flush out the CD14+ fraction by pushing the plunger into the column. The flushed fractions are collected in a fresh 50 mL Falcon and volume is adjusted to 30 mL using Miltenyi buffer, cells are centrifuged for 10 min at 300×g. The obtained cell pellet is resuspended in 10 mL RPMI w/o FBS, and cell density is determined using a hematologic analyser (Sysmex XS-500i). 100 000 cells are seeded per well of a 96-well plate for differentiation to MdM in RPMI 1640 medium supplemented with 10% FBS, 1% P/S and 100 ng/mL rhM-CSF. On day 5 the medium is refreshed with 100 μL RPMI 1640 medium supplemented with 10% FBS, 1% P/S and 100 ng/mL rhM-CSF.
On day 10, MdMs are triggered and compound is added.
A compound dilution plate is made in 100% DMSO by 3-fold dilution of 10 mM stock solution. An intermediate dilution plate (10× final concentration) is made by diluting the compound dilution plate 50-fold in RPMI medium.
Medium is carefully removed from cell plates using multichannel pipette, and replaced by 80 μL fresh medium. 10 μL of the 10× final concentration compound is added to the cells and incubated for 1 hour at 37° C. before addition of trigger. No trigger conditions/trigger conditions are spiked with equal final DMSO concentrations of 0.2% DMSO. 10 μL of 10×LPS (final conc. 200 ng/mL) solution are added to all wells except for the ‘no trigger wells’ where 10 μL medium is added. Supernatant is collected after 2 h (IL-10 determination) and after 20 h (TNFα determination) of LPS triggering. […]

COc1cc(-c2cnn3cc(C4(C(N)=O)CCC4)ccc23)cc(OC(F)F)c1C(=O)N[C@@H]1C[C@@H]1F [Cpd 254, 4-[6-(1-carbamoylcyclobutyl)pyrazolo[1,5-a]pyridin-3-yl]-2-(difluoromethoxy)-N-[(1R,2S)-2-fluorocyclopropyl]-6-methoxy-benzamide] and COc1cc(-c2cnn3cc(C4(N)CCC4)ccc23)cc(OC(F)F)c1C(=O)N[C@@H]1C[C@@H]1F [Cpd 261, 4-[6-(1-aminocyclobutyl)pyrazolo[1,5-a]pyridin-3-yl]-2-(difluoromethoxy)-N-[(1R,2S)-2-fluorocyclopropyl]-6-methoxy-benzamide] cannot be ordered by maximal fold induction: < 1.5 for the first, < 1.5 for the second.

COc1cc(-c2cnn3cc(C(C)(C)O)ccc23)cc(OC(F)F)c1C(=O)N[C@@H]1C[C@@H]1F [Cpd 227, 2-(difluoromethoxy)-N-[(1R,2S)-2-fluorocyclopropyl]-4-[6-(1-hydroxy-1-methyl-ethyl)pyrazolo[1,5-a]pyridin-3-yl]-6-methoxy-benzamide] gave a maximal fold induction of 1.5 to 4.5.
